This is an account of results in patent US20190124928A1, “ENHANCED HERBICIDAL COMPOSITIONS OF TRANSITION METAL CHELATES” (W. Neudorff GMBH KG, priority 2016, published 2019).

For data set [1], the system named is white clover. The data set can be described thus: Example 5 greenhouse white clover and turf test, white clover damage. In kind it is in vivo, Trifolium repens. The settings on record: sprayed twice at 100 ml/m^2, seven days after first spraying. On the procedure: (§1) Unless otherwise specified, all of the iron solutions were made using the same molar concentration of iron ion as chelating agent. In the liquid formulations samples were prepared by diluting a metal chelate, iron HEDTA (Neu 1173H) or iron EDTA to the desired level of iron as specified using stirring. Neu 1173H contains the stabilizer sodium citrate at 1.5% prior to dilution. Dilutions of iron HEDTA to the level of 0.25% Fe incorporate 0.08% sodium citrate into the spray solutions. KCl was then diluted and added to the diluted metal chelate.
(§2) In the dry formulations, the iron chelate was simply blended with KCl and with other fertilizer ingredients. Samples were usually prepared within 48 hours of treatment. All of the outside tests were done on areas of grass and white clover that were at least 2 months old. For the greenhouse tests, white clover and dandelion were grown in a commercial greenhouse mix using supplemental lighting and heating. Each plant was grown in a 2¼ inch pot to a minimum diameter of 15-20 cm. Perennial ryegrass was grown in 2¼ inch pots in the same greenhouse conditions as above and they are at least 4 weeks old at the time of application. […]
(§3) All plant damage was visually assessed using a percentage rating scale from 0 (no injury) to 100% (death). […] Percentage control was calculated from the respective weed cover data (e.g. preferably using the Henderson & Tilton formula). […]

In data set [2] the test system is perennial ryegrass. The data set can be described thus: Example 5 greenhouse white clover and turf test, grass damage. The format is in vivo, Lolium perenne. The following applies: sprayed twice at 100 ml/m^2, seven days after first spraying. On the procedure:
as §1, §2, §3

Data set [3] has as its system perennial ryegrass. The data set can be described thus: Example 10 greenhouse dandelion and turf test with sodium sulfate, grass damage. In kind it is in vivo, Lolium perenne. The following applies: sprayed once at 200 ml/m^2, six days after first spraying. On the procedure:
as §1, §2, §3

For data set [4], the system named is dandelion. The data set is described as follows: Example 10 greenhouse dandelion and turf test with sodium sulfate, dandelion damage. In kind it is in vivo, Taraxacum officinale. The following applies: sprayed once at 200 ml/m^2, six days after first spraying. On the procedure:
as §1, §2, §3

On to `[Cl-].[K+]` [KCl 2%, potassium chloride], for which the “White Clover Damage (%)” value in data set [1] is 0%. The “Grass Damage (%)” value in data set [2] turned out to be 0%.
On to `O=S(=O)([O-])[O-].[Na+].[Na+]` [Na2SO4 2%, sodium sulfate], for which, in data set [3], the “Grass Damage (%)” value is on record as 4%. Moreover, the “Dandelion damage (%)” value in data set [4] amounted to 0%.
